From ChEMBL document CHEMBL3992554, “Incorporation of arginine mimetic residue into peptides for recognition of double stranded nucleic acid structure: Binding and aggregation studies” (Bioorg Med Chem, 2017)
Activity calls are given as the source filed them. The calls are words filed in the database; no cut-off is given here. Peptide text beside a SMILES is read from it. * marks the point of attachment. Pyrrole2CO(5-CO-guanidino) = N=C(N)NC(=O)c1ccc(C(=O)*)[nH]1

What was measured:
Bos taurus [1] = organism: Bos taurus; assay: Binding affinity to calf thymus duplex DNA in pH 7.4 sodium cacodylate buffer assessed as positive-negative bisignate ICD band at peptide to polynucleotide ratio of 0.2 to 1.3 by CD titration method
[2] = Chemical stability in water at +8 degC; assay type: physicochemical; conditions: buffer
[3] = Binding affinity to poly(dG-dC)2 DNA (unknown origin) in pH 7.4 sodium cacodylate buffer assessed as positive-negative bisignate ICD band at peptide to polynucleotide ratio of 0.1 to 1.7 by CD titration method
[4] = Binding affinity to poly(dG-dC)2 DNA (unknown origin) in pH 7.4 sodium cacodylate buffer by UV-Visible titration method
[5] = Binding affinity to poly(dA-dT)2 DNA (unknown origin) in pH 7.4 sodium cacodylate buffer by UV-Visible titration method
[6] = Binding affinity to poly(dA-dT)2 DNA (unknown origin) in pH 7.4 sodium cacodylate buffer assessed as positive-negative bisignate ICD band at peptide to polynucleotide ratio of 0.1 to 1.7 by CD titration method
[7] = Aqueous solubility of the compound in water; assay type: physicochemical; conditions: buffer
[8] = Aggregation of the compound in water at 25 to 95 degC by UV-Visible titration method; assay type: physicochemical; conditions: buffer
[9] = Binding affinity to poly(rA).(rU) RNA duplex (unknown origin) in pH 7.4 sodium cacodylate buffer assessed as positive-negative bisignate ICD band at peptide to polynucleotide ratio of 0.1 to 1.7 by CD titration method
[10] = Binding affinity to poly(rA).(rU) RNA duplex (unknown origin) in pH 7.4 sodium cacodylate buffer by UV-Visible titration method
Bos taurus [11] = organism: Bos taurus; assay: Binding affinity to calf thymus duplex DNA in pH 7.4 sodium cacodylate buffer by UV-Visible titration method
[12] = Binding affinity to poly(rA).(rU) RNA duplex (unknown origin) in pH 7.4 sodium cacodylate buffer at peptide to polynucleotide ratio of 0.2 to 2.4 by CD titration method
Bos taurus [13] = organism: Bos taurus; assay: Binding affinity to calf thymus duplex DNA in pH 7.4 sodium cacodylate buffer at peptide to polynucleotide ratio of 0.2 to 2.1 by CD titration method
[14] = Binding affinity to poly(dG-dC)2 DNA (unknown origin) in pH 7.4 sodium cacodylate buffer at peptide to polynucleotide ratio of 0.2 to 2.4 by CD titration method
[15] = Binding affinity to poly(dA-dT)2 DNA (unknown origin) in pH 7.4 sodium cacodylate buffer at peptide to polynucleotide ratio of 0.2 to 2.1 by CD titration method
Bos taurus [16] = organism: Bos taurus; assay: Induction of calf thymus duplex DNA aggregation in pH 7.4 sodium cacodylate buffer at 0.3 to 0.5 equiv after 5 mins by atomic force microscopic method
Bos taurus [17] = organism: Bos taurus; assay: Induction of calf thymus duplex DNA aggregation in pH 7.4 sodium cacodylate buffer at 0.3 to 1.5 equiv by dynamic light scattering
[18] = Binding affinity to poly(dA-dT)2 DNA (unknown origin) in pH 7.4 sodium cacodylate buffer at peptide to polynucleotide ratio of <0.4 by CD titration method
[19] = Binding affinity to poly(dG-dC)2 DNA (unknown origin) in pH 7.4 sodium cacodylate buffer at peptide to polynucleotide ratio of 0.1 to 0.6 by CD titration method
[20] = Binding affinity to poly(dA-dT)2 DNA (unknown origin) in pH 7.4 sodium cacodylate buffer assessed as change in melting temperature at peptide to polynucleotide ratio of 0.5 by thermal denaturation assay
[21] = Binding affinity to poly(rA).(rU) RNA duplex (unknown origin) in pH 7.4 sodium cacodylate buffer assessed as change in melting temperature at peptide to polynucleotide ratio of 0.5 by thermal denaturation assay
[22] = Binding affinity to poly(rA).(rU) RNA duplex (unknown origin) in pH 7.4 sodium cacodylate buffer assessed as change in melting temperature at peptide to polynucleotide ratio of 0.3 by thermal denaturation assay
[23] = Binding affinity to poly(dG-dC)2 DNA (unknown origin) in pH 7.4 sodium cacodylate buffer by fluorimetric titration method
[24] = Binding affinity to poly(dA-dT)2 DNA (unknown origin) in pH 7.4 sodium cacodylate buffer assessed as negative induced band at peptide to polynucleotide ratio of >0.8 by CD titration method
Bos taurus [25] = organism: Bos taurus; assay: Binding affinity to calf thymus duplex DNA in pH 7.4 sodium cacodylate buffer assessed as change in melting temperature at peptide to polynucleotide ratio of 0.5 by thermal denaturation assay
Bos taurus [26] = organism: Bos taurus; assay: Binding affinity to calf thymus duplex DNA in pH 7.4 sodium cacodylate buffer at peptide to polynucleotide ratio of 0.1 to 0.5 by CD titration method
[27] = Binding affinity to poly(rA).(rU) RNA duplex (unknown origin) in pH 7.4 sodium cacodylate buffer by fluorimetric titration method
[28] = Binding affinity to poly(dA-dT)2 DNA (unknown origin) in pH 7.4 sodium cacodylate buffer by fluorimetric titration method
[29] = Binding affinity to poly(dA-dT)2 DNA (unknown origin) in pH 7.4 sodium cacodylate buffer assessed as change in melting temperature at peptide to polynucleotide ratio of 0.3 by thermal denaturation assay
[30] = Binding affinity to poly(rA).(rU) RNA duplex (unknown origin) in pH 7.4 sodium cacodylate buffer at peptide to polynucleotide ratio of 0.1 to 0.95 by CD titration method
Bos taurus [31] = organism: Bos taurus; assay: Binding affinity to calf thymus duplex DNA in pH 7.4 sodium cacodylate buffer assessed as change in melting temperature at peptide to polynucleotide ratio of 0.3 by thermal denaturation assay
[32] = Binding affinity to poly(dG-dC)2 DNA (unknown origin) in pH 7.4 sodium cacodylate buffer by ITC
[33] = Binding affinity to poly(dA-dT)2 DNA (unknown origin) in pH 7.4 sodium cacodylate buffer by ITC
[34] = Binding affinity to poly(rA).(rU) RNA duplex (unknown origin) in pH 7.4 sodium cacodylate buffer by ITC
[35] = Binding affinity to poly(dA-dT)2 DNA (unknown origin) in pH 7.4 sodium cacodylate buffer at peptide to polynucleotide ratio of 0.1 to 1.1 by CD titration method
Bos taurus [36] = organism: Bos taurus; assay: Binding affinity to calf thymus duplex DNA in pH 7.4 sodium cacodylate buffer by ITC
[37] = Binding affinity to poly(dA-dT)2 DNA (unknown origin) in pH 7.4 sodium cacodylate buffer assessed as positive induced CD band at peptide to polynucleotide ratio of 0.4 by CD titration method
[38] = Binding affinity to poly(dA-dT)2 DNA (unknown origin) in pH 7.4 sodium cacodylate buffer at 5.35 uM by fluorimetric titration method
[39] = Binding affinity to poly(dG-dC)2 DNA (unknown origin) in pH 7.4 sodium cacodylate buffer at 5.35 uM by fluorimetric titration method
[40] = Binding affinity to poly(dG-dC)2 DNA (unknown origin) in pH 7.4 sodium cacodylate buffer assessed as positive induced CD band at peptide to polynucleotide ratio of 0.4 by CD titration method
Bos taurus [41] = organism: Bos taurus; assay: Binding affinity to calf thymus duplex DNA in pH 7.4 sodium cacodylate buffer assessed as positive induced CD band at peptide to polynucleotide ratio of 0.4 by CD titration method
[42] = Induction of poly(rA).(rU) RNA duplex aggregation (unknown origin) in pH 7.4 sodium cacodylate buffer at peptide to polynucleotide ratio of 0.5 by CD titration method
[43] = Binding affinity to poly(rA).(rU) RNA duplex (unknown origin) in pH 7.4 sodium cacodylate buffer at 5.35 uM by fluorimetric titration method
[44] = Induction of poly(dG-dC)2 DNA aggregation (unknown origin) in pH 7.4 sodium cacodylate buffer at peptide to polynucleotide ratio of 0.5 by CD titration method
[45] = Binding affinity to poly(rA).(rU) RNA duplex (unknown origin) in pH 7.4 sodium cacodylate buffer assessed as positive induced CD band at peptide to polynucleotide ratio of 0.4 by CD titration method
Bos taurus [46] = organism: Bos taurus; assay: Induction of calf thymus duplex DNA aggregation in pH 7.4 sodium cacodylate buffer at peptide to polynucleotide ratio of 0.5 by CD titration method
[47] = Induction of poly(dA-dT)2 DNA aggregation (unknown origin) in pH 7.4 sodium cacodylate buffer at peptide to polynucleotide ratio of 0.5 by CD titration method

SMILES	Stability [2]	log Ks [4]	log Ks [5]	solubility [7]	Activity [8]	log Ks [10]	log Ks (Bos taurus [11])	ΔTm [20] [°C]	ΔTm [21] [°C]	ΔTm [22] [°C]	ΔTm (Bos taurus [25]) [°C]	ΔTm [29] [°C]	ΔTm (Bos taurus [31]) [°C]	other results
N=C(N)NC(=O)c1ccc(C(=O)NCCCC[C@H](NC(=O)[C@H](CCCCN)NC(=O)[C@H](CCCCN)NC(=O)[C@@H](N)CCCCN)C(N)=O)[nH]1 (H-KKKK(Pyrrole2CO(5-CO-guanidino))-NH2)	Stable	6.4	5.5	Soluble	Not Active	5.3	6.1	4.9	11.1	7.9	2.6	3.3	0.5	Activity (Bos taurus [16]): Active; Activity (Bos taurus [17]): Active; Activity [18]: Active; Activity [19]: Active; Activity [23]: Active; Activity [24]: Active; Activity (Bos taurus [26]): Active; Activity [27]: Active; Activity [28]: Active; Activity [30]: Active
N=C(N)NCCC[C@H](NC(=O)[C@H](CCCNC(=N)N)NC(=O)[C@H](CCCNC(=N)N)NC(=O)[C@@H](N)CCCNC(=N)N)C(N)=O (H-RRRR-NH2)	Stable	–	–	Soluble	Not Active	–	–	5	15.3	12.7	2.7	4.1	1.9	log Ks [32]: 5.42 to 5.5; log Ks [33]: 5.44 to 5.5; log Ks [34]: 5.54 to 5.6; Activity [35]: Active; log Ks (Bos taurus [36]): 5.33 to 5.6
N=C(N)NC(=O)c1ccc(C(=O)NCCCC[C@H](NC(=O)[C@H](CCCCNC(=O)c2ccc(C(=O)NC(=N)N)[nH]2)NC(=O)[C@H](CCCCNC(=O)c2ccc(C(=O)NC(=N)N)[nH]2)NC(=O)[C@@H](N)CCCCNC(=O)c2ccc(C(=O)NC(=N)N)[nH]2)C(N)=O)[nH]1 (H-K(Pyrrole2CO(5-CO-guanidino))K(Pyrrole2CO(5-CO-guanidino))K(Pyrrole2CO(5-CO-guanidino))K(Pyrrole2CO(5-CO-guanidino))-NH2)	Stable	7.3	5.6	Soluble	Not Active	7	5.4	0.5	2.4	2.1	0	0.6	0	Activity [37]: Active; Activity [38]: Active; Activity [39]: Active; Activity [40]: Active; Activity (Bos taurus [41]): Active; Activity [42]: Active; Activity [43]: Active; Activity [44]: Active; Activity [45]: Active; Activity (Bos taurus [46]): Active; Activity [47]: Active

Continued, in another order:

Stability [2]	log Ks [4]	log Ks [5]	solubility [7]	Activity [8]	log Ks [10]	log Ks (Bos taurus [11])	ΔTm [20] [°C]	ΔTm [21] [°C]	ΔTm [22] [°C]	ΔTm (Bos taurus [25]) [°C]	ΔTm [29] [°C]	ΔTm (Bos taurus [31]) [°C]	SMILES	other results
Stable	5.2	4.8	Soluble	Not Active	4.2	4.6	–	–	–	–	–	–	N=C(N)NC(=O)c1ccc(C(=O)NCCCC[C@H](NC(=O)[C@H](CCCCNC(=O)c2ccc(C(=O)NC(=N)N)[nH]2)NC(=O)c2ccc(C(=O)NC(=N)N)[nH]2)C(N)=O)[nH]1	Activity (Bos taurus [1]): Active; Activity [3]: Active; Activity [6]: Active; Activity [9]: Active
Stable	–	4.6	Soluble	Not Active	3.7	4.9	–	–	–	–	–	–	N=C(N)NC(=O)c1ccc(C(=O)NCCCC[C@H](NC(=O)[C@@H](N)CCCCNC(=O)c2ccc(C(=O)NC(=N)N)[nH]2)C(N)=O)[nH]1	Activity [12]: Active; Activity (Bos taurus [13]): Active; Activity [14]: Active; Activity [15]: Active
